Patent publication US9902986B2, “Enterobactin conjugates and uses thereof” (Massachusetts Institute of Technology, priority 2013, dated 2018)

Key:
E. coli K-12 = assay: Antimicrobial activity assay, E. coli K-12; type: cell-based, Escherichia coli; conditions: for concentrations at which E. coli K-12 was inhibited: inhibition attributed to iron deprivation
Method: (§1) Overnight cultures of the bacterial strains were prepared by inoculating 5 mL of LB with the bacterial freezer stocks and the cultures were incubated at 37° C. in a tabletop incubator shaker set at 150 rpm. The overnight culture grew to saturation and was diluted 1:100 into 5 mL of fresh LB medium containing DP (200 μM) and incubated at 37° C. with shaking at 150 rpm until OD600 reached 0.6. The cultures were subsequently diluted to an OD600 value of 0.001 in 50% MHB medium (11.5 g/L) with or without DP (200 μM). No antibiotic marker was included in these cultures. A 90-μL aliquot of the diluted culture was combined with a 10-μL aliquot of a 10× solution of the tested compounds in a 96-well plate, which was wrapped in […] and incubated at 30° C. with shaking at 150 rpm for 19 h. Bacterial growth was determined by measuring OD600 using a BIOTEK SYNERGY HT plate reader. Each well condition was prepared in duplicate, and at least three independent replicates were conducted on different days. The resulting mean OD600 are reported and the error bars are the standard deviation.
In an exemplary experiment, antibacterial activities of the conjugates were tested against E. coli K-12 in 50% MHB at 30° C., t=19 h. 2,2′-dipyridyl (DP, 200 μM) was added to provide conditions of iron limitation.

E. coli B = assay: Antimicrobial activity assay, E. coli B; type: cell-based, Escherichia coli; conditions: 50% MHB, 30° C., t=19 h
Method: as §1
In another exemplary experiment, antibacterial activities of the conjugates were tested against E. coli B in 50% MHB at 30° C., t=19 h. DP (200 μM) was added to provide conditions of iron limitation.

E. coli H9049 = assay: Antimicrobial activity assay, E. coli H9049; type: cell-based, Escherichia coli; conditions: 50% MHB, 30° C., t=19 h
Method: as §1
In another exemplary experiment, antibacterial activities of the conjugates were tested against E. coli H9049 in 50% MHB at 30° C., t=19 h. DP (200 μM) was added to provide conditions of iron limitation.

E. coli UTI89 [1] = assay: Antimicrobial activity assay, E. coli UTI89; type: cell-based, Escherichia coli; conditions: 50% MHB, 200 μM DP (iron-deficient), 30° C., t=19 h
Method: No antibiotic marker was included in these cultures. […] Bacterial growth was determined by measuring OD600 using a BIOTEK SYNERGY HT plate reader. Each well condition was prepared in duplicate, and at least three independent replicates were conducted on different days. The resulting mean OD600 are reported and the error bars are the standard deviation.
In another exemplary experiment, antibacterial activities of the conjugates were tested against E. coli UTI89 in 50% MHB at 30° C., t=19 h. […] Under iron-deficient conditions, Ent-Amp, MGE-Amp, and DGE-Amp provided a complete growth inhibition at 100 nM.

[2] = test system: Salmonella enterica serovar Typhimurium (STM) IR715; assay: Antibacterial activity assay, Salmonella Typhimurium; type: cell-based; conditions: 50% MHB, 100 μM 2,2′-dipyridyl, 30° C., t=19 h
Method: FIGS. 12A and 12B show exemplary antibacterial activities of Ent-Amp, Ent-Amx, MGE-Amp, MGE-Amx, DGE-Amp, and DGE-Amx against Salmonella enterica serovar Typhimurium (STM) IR715 (50% MHB with 100 μM 2,2′-dipyridyl to provide conditions of iron limitation, 30° C., t=19 h). (FIG. 12A) Antibacterial activity of Amp and the Amp-containing conjugates (Ent-Amp, MGE-Amp, and DGE-Amp). […] (FIG. 12B) Antibacterial activity of Amx and the Amx-containing conjugates (Ent-Amx, MGE-Amx, and DGE-Amx).

E. coli UTI89 [3] = assay: Competition assay with native siderophores, E. coli UTI89; type: cell-based, Escherichia coli; conditions: conjugate 100 nM, varied Ent, MGE or DGE, 50% MHB, 200 μM DP, 30° C., t=19 h
Method: Ent was synthesized following a literature procedure^55 and stored as DMSO stock solution at −20° C. MGE and DGE were prepared from Ent using MceC and IroB as described for MGE-PEG3-N3 and DGE-PEG3-N3.
In an exemplary experiment, select conjugates (Ent-Amp, MGE-Amp, and DGE-Amp) with select native siderophores (Ent, MGE, and DGE) were tested against the uropathogenic strain E. coli UTI89 in 50% MHB, t=19 h, 30° C. […] The concentration of the conjugates was fixed at 100 nM, and the concentration of the native siderophores was varied. […] These observations indicate that Ent, MGE, Ent-Amp, and MGE-Amp may enter via both FepA and IroN with different efficiency, but DGE and DGE-Amp may only enter via IroN.
In another exemplary experiment, select conjugates (Ent-Amp, MGE-Amp, and DGE-Amp) with select native siderophores (Ent, MGE, and DGE) were tested against the uropathogenic strain E. coli UTI89 in 50% MHB, t=19 h, 30° C. […] The concentration of the conjugates was fixed at 100 nM and the concentration of the native siderophores was varied. […] These observations indicate that Ent, MGE, Ent-Amp, and MGE-Amp may enter via both FepA and IroN with different efficiency, but DGE and DGE-Amp may only enter via IroN.

[4] = test system: mixed culture of E. coli K-12 and E. coli UTI89; assay: Mixed culture assay, E. coli K-12 and E. coli UTI89; type: cell-based, Escherichia coli; conditions: iron-deficient conditions (200 μM DP), 50% MHB, 30° C., t=19 h
Description: (§2) No antibiotic marker was included in these cultures.

[5] = test system: mixed culture of E. coli K-12 and E. coli CFT073; conditions: iron-deficient conditions (200 μM DP), 50% MHB, 30° C., t=19 h
Method: as §2
2,2′-dipyridyl (DP, 200 μM) was added to provide conditions of iron limitation.

[6] = 50% MHB, 200 μM DP, 30° C., t=19 h

SMILES | antibacterial activity at 100 nM (E. coli K-12; [6]) | concentration at which growth inhibition was observed (attributed to iron deprivation) (E. coli K-12; [6]) [µM] | concentrations at which E. coli K-12 was inhibited (E. coli K-12) | antibacterial activity at 100 nM (E. coli B; 200 μM DP) | concentration at which growth inhibition was observed (attributed to iron deprivation) (E. coli B; 200 μM DP) [µM] | antibacterial activity at 100 nM (E. coli H9049; 200 μM DP) | concentration at which growth inhibition was observed (attributed to iron deprivation) (E. coli H9049; 200 μM DP) [µM] | concentration providing complete growth inhibition (E. coli UTI89 [1]) [nM] | antibacterial activity relative to the unmodified antibiotic [2] | attenuation of antibacterial activity by native siderophores (E. coli UTI89 [3]) | growth inhibition in mixed culture at 100 nM [4] | growth inhibition in mixed culture at 100 nM [5] | concentration providing complete growth inhibition (E. coli K-12; 50% MHB, 200 μM DP (iron-deficient), 30° C., t=19 h) [nM] | concentration providing complete growth inhibition (E. coli B; 200 μM DP (iron-deficient)) [nM] | concentration providing complete growth inhibition (E. coli H9049; 200 μM DP (iron-deficient)) [nM] | concentration providing complete growth inhibition for both strains [4] [nM] | concentration providing complete growth inhibition for both strains [5] [nM] | antibacterial activity, comparison (E. coli K-12; [6]) | antibacterial activity, comparison (E. coli B; 200 μM DP) | antibacterial activity, comparison (E. coli H9049; 200 μM DP)
CC1(C)SC2C(NC(=O)C(NC(=O)CCCc3cn(CCOCCOCCOCCNC(=O)c4cc(O)c(O)c(C(=O)NC5COC(=O)C(NC(=O)c6cc(C7OC(CO)C(O)C(O)C7O)cc(O)c6O)COC(=O)C(NC(=O)c6cc(C7OC(CO)C(O)C(O)C7O)cc(O)c6O)COC5=O)c4)nn3)c3ccccc3)C(=O)N2C1C(=O)O (stereo not shown) [DGE-Amp] | inactive | 10 | micromolar concentrations | inactive | 10 | inactive | 10 | 100 | enhanced antibacterial activity relative to unmodified Amp | attenuated by Ent, MGE, or DGE | only inhibited the growth of E. coli UTI89 | only inhibited the growth of E. coli CFT073 | – | – | – | – | – | – | – | –
CC1(C)SC2C(NC(=O)C(NC(=O)CCCc3cn(CCOCCOCCOCCNC(=O)c4cc(O)c(O)c(C(=O)NC5COC(=O)C(NC(=O)c6cccc(O)c6O)COC(=O)C(NC(=O)c6cccc(O)c6O)COC5=O)c4)nn3)c3ccccc3)C(=O)N2C1C(=O)O (stereo not drawn) [Ent-Amp] | – | – | – | – | – | – | – | 100 | enhanced antibacterial activity relative to unmodified Amp | only attenuated in the presence of Ent or MGE | – | – | 100 | 100 | 100 | 100 | 100 | – | – | –
CC1(C)SC2C(NC(=O)C(NC(=O)CCCc3cn(CCOCCOCCOCCNC(=O)c4cc(O)c(O)c(C(=O)NC5COC(=O)C(NC(=O)c6cccc(O)c6O)COC(=O)C(NC(=O)c6cccc(O)c6O)COC5=O)c4)nn3)c3ccc(O)cc3)C(=O)N2C1C(=O)O (stereo not drawn) [Ent-Amx] | – | – | – | – | – | – | – | – | enhanced antibacterial activity relative to unmodified Amx | only attenuated in the presence of Ent or MGE | – | – | – | – | – | – | – | – | – | –
CC1(C)SC2C(NC(=O)C(NC(=O)CCCc3cn(CCOCCOCCOCCNC(=O)c4cc(O)c(O)c(C(=O)NC5COC(=O)C(NC(=O)c6cc(C7OC(CO)C(O)C(O)C7O)cc(O)c6O)COC(=O)C(NC(=O)c6cccc(O)c6O)COC5=O)c4)nn3)c3ccccc3)C(=O)N2C1C(=O)O (stereo not shown) [MGE-Amp] | inactive | – | micromolar concentrations | inactive | – | inactive | – | 100 | enhanced antibacterial activity relative to unmodified Amp | attenuated by Ent, MGE, or DGE | only inhibited the growth of E. coli UTI89 | only inhibited the growth of E. coli CFT073 | – | – | – | – | – | more active against the bacteria than DGE-Amp | more active against the bacteria than DGE-Amp | more active against the bacteria than DGE-Amp
